# Results: ChEMBL document CHEMBL3826875, “2,8-Disubstituted-1,6-Naphthyridines and 4,6-Disubstituted-Isoquinolines with Potent, Selective Affinity for CDK8/19” (ACS Med Chem Lett, 2016)
# Test system: not listed separately
# Assay: in vitro
# Conditions: human, Caco-2
row,Compound,"Papp A→B at 2 h, 1 µM [×10⁻⁶ cm/s]"
1,Cn1cc(-c2ccc(-c3cnc(N)c4ccc(C(=O)N5CCNCC5)nc34)cc2)cn1,0.96
2,Cn1cc(-c2ccc(-c3cnc(N)c4ccc(C(=O)N5CC(F)(F)C5)cc34)cc2)cn1,39.7
3,Cn1cc(-c2ccc(-c3cnc(N)c4ccc(C(=O)NC5CC5)cc34)cc2)cn1,32.5
4,COC1(C)CN(C(=O)c2ccc3c(N)ncc(-c4ccc(-c5cnn(C)c5)cc4)c3c2)C1,25.2
5,Cn1cc(-c2ccc(-c3cnc(N)c4ccc(C(=O)N5CCC5)cc34)cc2)cn1,27.2
6,Cn1cc(-c2ccc(-c3cnc(N)c4ccc(C(=O)N5CC(C)(F)C5)cc34)cc2)cn1,25.8
7,Cn1cc(-c2ccc(-c3cnc(N)c4ccc(N5CCOC5=O)cc34)cc2)cn1,20.6

# More lines, now with the values ahead:
row,"Papp A→B at 2 h, 1 µM [×10⁻⁶ cm/s]",Compound
1,23.9,Cn1cc(-c2ccc(-c3cnc(N)c4ccc(C(=O)N5CC(F)(F)C5)nc34)cc2)cn1
2,28.6,COC1CN(C(=O)c2ccc3c(N)ncc(-c4ccc(-c5cnn(C)c5)cc4)c3n2)C1
3,42.6,Cn1cc(-c2ccc(-c3cnc(N)c4ccc(C(=O)N5CCC5)nc34)cc2)cn1
4,34,Cn1cc(-c2ccc(-c3cnc(N)c4ccc(C(=O)N5CCOCC5)nc34)cc2)cn1
5,27.6,Cn1cc(-c2ccc(-c3cnc(N)c4ccc(C(=O)N5CC(C)(F)C5)nc34)cc2)cn1
6,40.1,COC1(C)CN(C(=O)c2ccc3c(N)ncc(-c4ccc(-c5cnn(C)c5)cc4)c3n2)C1

# Organism: Mus musculus
# Assay: not given
# Conditions: SW-620, 5 mg/kg
row,Compound,inhibition
1,COC1CN(C(=O)c2ccc3c(N)ncc(-c4ccc(-c5cnn(C)c5)cc4)c3n2)C1,tde
